Patent publication US7989430B2, “Antibacterial agents” (priority 2005, dated 2011)
In brackets after ≈: the same amount, converted by molar mass.

Assays:
[1] = 50% aq TFA, 3 h
M. tuberculosis H37Rv [2] = experiment: M. tuberculosis H37Rv MIC assay (whole-cell); format: cell-based, Mycobacterium tuberculosis
MbtA = MbtA (Mycobacterium tuberculosis, UniProt P71716); details: data not shown
[3] = Chemical stability on storage; details: salt form prepared in Example 1 vs free acid
M. tuberculosis H37Rv [4] = details: Ferreras et al., Nature Chem. Biol. 2005, likely the free acid form; cited from earlier work

MbtA, sequence (P71716 whole entry): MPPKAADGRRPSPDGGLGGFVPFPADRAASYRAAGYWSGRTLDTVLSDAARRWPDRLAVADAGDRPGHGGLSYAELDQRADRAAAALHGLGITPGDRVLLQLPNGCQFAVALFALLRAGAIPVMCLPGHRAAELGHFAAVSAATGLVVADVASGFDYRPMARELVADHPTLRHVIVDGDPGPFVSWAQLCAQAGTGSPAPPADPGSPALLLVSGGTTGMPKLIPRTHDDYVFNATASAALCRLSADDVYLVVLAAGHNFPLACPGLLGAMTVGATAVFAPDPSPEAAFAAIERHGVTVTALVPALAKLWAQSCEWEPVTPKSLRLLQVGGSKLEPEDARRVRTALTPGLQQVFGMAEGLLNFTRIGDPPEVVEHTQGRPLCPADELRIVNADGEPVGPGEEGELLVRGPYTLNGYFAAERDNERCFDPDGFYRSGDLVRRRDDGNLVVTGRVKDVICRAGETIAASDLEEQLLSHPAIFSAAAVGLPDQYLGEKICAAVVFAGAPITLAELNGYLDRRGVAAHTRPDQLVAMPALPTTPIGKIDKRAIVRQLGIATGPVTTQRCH

In the case of `CCN(CC)CC.Nc1ncnc2c1ncn2[C@H]1C[C@H](O)[C@@H](COS(=O)(=O)NC(=O)c2ccccc2O)O1` [Example 42, 2′-Deoxy-5′-O—[N-(2-hydroxybenzoyl)sulfamoyl]-adenosine triethylammonium salt], the “stability under acidic conditions” value [1] is reported as “unstable”, the “activity in whole-cell assay of M. tuberculosis” value (M. tuberculosis H37Rv [2]; data not shown) is reported as “potent activity” and the “activity in the in vitro enzyme assay” value (MbtA) is reported as “potent activity”.

In the case of `CCN(CC)CC.Nc1ncnc2c1ncn2[C@@H]1O[C@H](COS(=O)(=O)NC(=O)c2ccccc2O)[C@@H](O)[C@H]1O` [Example 1, 5′-O—(N-(2-Hydroxybenzoyl)sulfamoyl)-adenosine triethylammonium salt], the “stability relative to the free acid” value [3] is reported as “significantly more stable” and the “potency against M. tuberculosis H37Rv relative to the free acid” value (M. tuberculosis H37Rv [2]; salt form vs free acid) is reported as “about 28 times”.

For `Nc1ncnc2c1ncn2[C@@H]1O[C@H](COS(=O)(=O)NC(=O)c2ccccc2O)[C@@H](O)[C@H]1O` [Compound 34, 5′-O—(N-(2-hydroxybenzoyl)sulfamoyl)adenosine], the MIC50 (M. tuberculosis H37Rv [4]) is listed as 2.2 µM (≈ 1.03 µg/mL).

In the case of `Nc1ncnc2c1ncn2[C@@H]1O[C@H](COS(=O)(=O)NC(=O)c2ccc(O)c(O)c2)[C@@H](O)[C@H]1O`, the melting point is reported as > 190 °C (dec.).
